Active and inactive are the calls of the source. No cut-off for these calls is given here.
Columns and labels:
[1] = Half-life was measured in the presence of NADPH at 20 uM; No inhibition; type: ADME
[2] = molecular target: Trypanothione reductase (Trypanosoma cruzi) (UniProt P28593); experiment: Tested for inhibition of NADPH-reduced trypanothione reductase (TR)
[3] = Half-life was measured in the presence of NADPH at 20 uM; type: ADME
[4] = molecular target: Trypanothione reductase (Trypanosoma cruzi) (UniProt P28593); experiment: Tested for inhibition of NADPH-reduced trypanothione reductase (TR); No inhibition

Chain of UniProt P28593 (P28593 whole entry, looked up): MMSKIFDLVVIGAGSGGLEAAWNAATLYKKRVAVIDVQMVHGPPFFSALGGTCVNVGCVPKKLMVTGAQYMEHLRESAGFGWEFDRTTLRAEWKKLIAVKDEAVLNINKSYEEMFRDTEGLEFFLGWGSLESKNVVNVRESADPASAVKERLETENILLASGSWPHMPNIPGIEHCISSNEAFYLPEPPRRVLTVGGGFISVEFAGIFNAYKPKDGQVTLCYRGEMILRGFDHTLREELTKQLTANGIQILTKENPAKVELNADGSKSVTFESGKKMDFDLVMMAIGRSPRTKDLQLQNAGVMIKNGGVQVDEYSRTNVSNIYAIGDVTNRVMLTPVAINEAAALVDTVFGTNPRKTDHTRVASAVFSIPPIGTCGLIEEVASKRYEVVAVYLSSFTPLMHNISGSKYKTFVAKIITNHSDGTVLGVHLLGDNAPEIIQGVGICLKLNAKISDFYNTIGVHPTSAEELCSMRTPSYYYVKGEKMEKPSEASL

**Q.** Which NI [1] does the source give for “(S-Glutathionato)-(4'-Chloro-2,2':6'2''-terpyridine)platinum (II) Nitrate [listing 1 of 2 here]” here?
**A.** The NI was “Not Active”.

**Q.** With “(4-Picoline)(2,2':6'2''-terpyridine)platinum (II) Bis (tetrafluoroborate) [listing 1 of 2 here]” as the substance, how does the K obs [2] read?
**A.** The K obs was 85 M⁻¹ s⁻¹.

**Q.** For “(2-Hydroxyethanethiolato)(2,2':6'2''-terpyridine)platinum (II) Nitrate [listing 1 of 2 here]”, which T1/2 [3] is on record?
**A.** Its T1/2 is 35 min.

**Q.** Which K obs [2] does the source give for “(2-Hydroxyethanethiolato)(2,2':6'2''-terpyridine)platinum (II) Nitrate [listing 2 of 2 here]” here?
**A.** The K obs was 40 M⁻¹ s⁻¹.

**Q.** For “(4-Picoline)(2,2':6'2''-terpyridine)platinum (II) Bis (tetrafluoroborate) [listing 2 of 2 here]”, which T1/2 [3] is on record?
**A.** Its T1/2 is 11 min.

**Q.** With “(S-Glutathionato)-(4'-Chloro-2,2':6'2''-terpyridine)platinum (II) Nitrate [listing 2 of 2 here]” as the substance, how does the NI [4] read?
**A.** Its NI is “inactive”.
